The series in a line: Motesanib plasma pharmacokinetics (LC-MS/MS). The series is classed as in vivo, human. Conditions: for Cmax / AUC / Tmax: human, plasma; for Cmax / AUC: po; for AUC: time 0 to 24 hours; for Tmax: listed as 'Mean'. The procedure: Motesanib PK was assessed by comparing week 1 versus week 4 or 5 (motesanib without and with trebananib, respectively). Serum samples for the evaluation of minimum and maximum observed trebananib concentrations in the plasma were collected immediately before dosing on day 1 of weeks 2, 3, 4, 5, 6, 8, and every 8 weeks thereafter until 4 weeks after the last dose of study treatment. In addition, intensive sampling was conducted at the end of infusion, and 6, 24, 48, and 96 hours following dosing on day 1 of weeks 4 or 5. The samples were analysed for trebananib concentrations employing a validated enzyme-linked immunosorbent assay.
For motesanib, postdose samples were taken at 0.5, 1, 4, 6, and 24 hours during weeks 1 and 5 (without and with trebananib coadministration, respectively). Motesanib plasma concentrations were assessed with a validated liquid chromatography/mass spectrometry (LC-MS/MS) method at Cedra Corporation (Austin, TX).

Where [1] appears, read: 75 mg, motesanib 75 mg oral QD without trebananib, mean.
Setting [2] is: 125 mg, motesanib 125 mg oral QD without trebananib, mean.
Setting [3] is: motesanib 75 mg oral QD with trebananib 3 mg kg^−1, mean.
The mark [4] stands for this setting: motesanib 125 mg oral QD with trebananib 3 mg kg^−1, mean.

For `CC1(C)CNc2cc(NC(=O)c3cccnc3NCc3ccncc3)ccc21` [Motesanib], the Cmax is, setting by setting: under setting [1], 466 ng/mL; under setting [2], 559 ng/mL; under setting [3], 507 ng/mL; under setting [4], 541 ng/mL. The exposure (AUC) runs as follows: under setting [1], 2580 ng·h/mL; under setting [2], 3130 ng·h/mL; under setting [3], 3180 ng·h/mL; under setting [4], 3920 ng·h/mL. Also, the time of peak concentration (Tmax) was 1 h (motesanib 75 mg oral QD with trebananib 3 mg kg^−1), 1.1 h (motesanib 75 mg oral QD without trebananib) and 1 h (motesanib 125 mg oral QD without trebananib). For the same compound, the “Effect of trebananib on motesanib PK” value (motesanib 75 mg or 125 mg with trebananib 3 mg kg^−1) is recorded as “did not appear to be affected”. Moreover, the CL (motesanib 75 mg oral QD without trebananib, mean) was 0.348 mL/min/kg.

As a reminder, the Cmax is the maximum level reached in the sampled fluid or tissue. In general, AUC refers to concentration integrated over time. Low values mean low exposure, high ones high exposure. Usually Tmax stands for the time at which the peak concentration occurs.

The values above are taken from paper PMC4294348 (Oncotarget, 2014).
